Measured values reported in the supplement of paper PMC10307832.

Columns and labels:
Test in all cases: relative viability (nuclei count vs DMSO), 5 days (fraction); higher = more cells survive
EPLC-272H = test system: EPLC-272H
Method in brief: (§1)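 The day after seeding in 1536-well plates, lung cancer cell lines were treated by pin tool with a single drug, or with a fixed anchor-drug dose together with five library-drug doses (not always all listed) in √10 steps. After 5 days, a combined fix-and-stain solution (final 0.05% Triton X-100, 1% formaldehyde, 1 ug/ml Hoechst) was added. Nuclei counted on 4× images gave relative viability as treated counts over vehicle counts, reported as the median of duplicate plates.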

SW 900 = test system: SW 900
Method in brief: as §1

HOP-62 = test system: HOP-62
Method in brief: as §1

NCI-H2085 = test system: NCI-H2085
Method in brief: as §1

COR-L 105 = test system: COR-L 105
Method in brief: as §1

NCI-H2009 = test system: NCI-H2009
Method in brief: as §1

NCI-H2170 = test system: NCI-H2170
Method in brief: as §1

NCI-H1666 = test system: NCI-H1666
Method in brief: as §1

HCC-78 = test system: HCC-78
Method in brief: as §1

NCI-H1915 = test system: NCI-H1915
Method in brief: as §1

SK-LU-1 = test system: SK-LU-1
Method in brief: as §1

A-427 = test system: A-427
Method in brief: as §1

NCI-H1793 = test system: NCI-H1793
Method in brief: as §1

NCI-H1792 = test system: NCI-H1792
Method in brief: as §1

UMC-11 = test system: UMC-11
Method in brief: as §1

NCI-H358 = test system: NCI-H358
Method in brief: as §1

NCI-H1944 = test system: NCI-H1944
Method in brief: as §1

LC-2-ad = test system: LC-2-ad
Method in brief: as §1

LU99A = test system: LU99A
Method in brief: as §1

LXF-289 = test system: LXF-289
Method in brief: as §1

NCI-H460 = test system: NCI-H460
Method in brief: as §1

HCC-366 = test system: HCC-366
Method in brief: as §1

O=c1cc(-c2cccc3c2Sc2ccccc2S3)oc(N2CCOCC2)c1 + Nc1nc2[nH]cc(CCc3ccc(C(=O)N[C@@H](CCC(=O)O)C(=O)O)cc3)c2c(=O)[nH]1 [Pemetrexed] (partner 0.2 µM)
relative viability (EPLC-272H; first compound 0.08 µM): 0.296 | relative viability (EPLC-272H; first compound 0.253 µM): 0.224 | relative viability (EPLC-272H; first compound 0.8 µM): 0.333 | relative viability (EPLC-272H; first compound 2.53 µM): 0.304 | relative viability (EPLC-272H; first compound 8 µM): 0.197 | relative viability (SW 900; first compound 0.253 µM): 0.492 | relative viability (SW 900; first compound 0.8 µM): 0.495 | relative viability (SW 900; first compound 2.53 µM): 0.439 | relative viability (SW 900; first compound 8 µM): 0.438 | relative viability (HOP-62; first compound 0.08 µM): 0.322 | relative viability (HOP-62; first compound 0.253 µM): 0.305 | relative viability (HOP-62; first compound 0.8 µM): 0.406 | relative viability (HOP-62; first compound 2.53 µM): 0.396 | relative viability (HOP-62; first compound 8 µM): 0.352 | relative viability (NCI-H2085; first compound 0.08 µM): 0.828 | relative viability (NCI-H2085; first compound 0.253 µM): 0.962 | relative viability (NCI-H2085; first compound 0.8 µM): 0.934 | relative viability (NCI-H2085; first compound 2.53 µM): 0.757 | relative viability (NCI-H2085; first compound 8 µM): 0.773 | relative viability (COR-L 105; first compound 0.08 µM): 1.08 | relative viability (COR-L 105; first compound 0.253 µM): 0.835 | relative viability (COR-L 105; first compound 0.8 µM): 1.1 | relative viability (COR-L 105; first compound 2.53 µM): 0.918 | relative viability (COR-L 105; first compound 8 µM): 1.14 | relative viability (NCI-H2009; first compound 0.08 µM): 1.08 | relative viability (NCI-H2009; first compound 0.253 µM): 0.96 | relative viability (NCI-H2009; first compound 0.8 µM): 0.983 | relative viability (NCI-H2009; first compound 2.53 µM): 0.966 | relative viability (NCI-H2009; first compound 8 µM): 0.957 | relative viability (NCI-H2170; first compound 0.08 µM): 0.268 | relative viability (NCI-H2170; first compound 0.253 µM): 0.271 | relative viability (NCI-H2170; first compound 0.8 µM): 0.292 | relative viability (NCI-H2170; first compound 2.53 µM): 0.256 | relative viability (NCI-H2170; first compound 8 µM): 0.262 | relative viability (NCI-H1666; first compound 0.08 µM): 0.844 | relative viability (NCI-H1666; first compound 0.253 µM): 0.913 | relative viability (NCI-H1666; first compound 0.8 µM): 0.762 | relative viability (NCI-H1666; first compound 2.53 µM): 0.758 | relative viability (NCI-H1666; first compound 8 µM): 0.793 | relative viability (HCC-78; first compound 0.08 µM): 0.914 | relative viability (HCC-78; first compound 0.253 µM): 0.943 | relative viability (HCC-78; first compound 0.8 µM): 0.946 | relative viability (HCC-78; first compound 2.53 µM): 0.882 | relative viability (HCC-78; first compound 8 µM): 0.928 | relative viability (NCI-H1915; first compound 0.08 µM): 0.507 | relative viability (NCI-H1915; first compound 0.253 µM): 0.442 | relative viability (NCI-H1915; first compound 0.8 µM): 0.552 | relative viability (NCI-H1915; first compound 2.53 µM): 0.52 | relative viability (NCI-H1915; first compound 8 µM): 0.405 | relative viability (SK-LU-1; first compound 0.08 µM): 1.1 | relative viability (SK-LU-1; first compound 0.253 µM): 1.27 | relative viability (SK-LU-1; first compound 0.8 µM): 1.14 | relative viability (SK-LU-1; first compound 2.53 µM): 0.885 | relative viability (SK-LU-1; first compound 8 µM): 1.03 | relative viability (A-427; first compound 0.08 µM): 0.808 | relative viability (A-427; first compound 0.253 µM): 1 | relative viability (A-427; first compound 0.8 µM): 0.991 | relative viability (A-427; first compound 2.53 µM): 0.92 | relative viability (A-427; first compound 8 µM): 0.993 | relative viability (NCI-H1793; first compound 0.08 µM): 0.728 | relative viability (NCI-H1793; first compound 0.253 µM): 1.04 | relative viability (NCI-H1793; first compound 0.8 µM): 0.798 | relative viability (NCI-H1793; first compound 2.53 µM): 0.679 | relative viability (NCI-H1793; first compound 8 µM): 1.2 | relative viability (NCI-H1792; first compound 0.08 µM): 0.75 | relative viability (NCI-H1792; first compound 0.253 µM): 1.54 | relative viability (NCI-H1792; first compound 0.8 µM): 0.775 | relative viability (NCI-H1792; first compound 2.53 µM): 0.776 | relative viability (NCI-H1792; first compound 8 µM): 0.729 | relative viability (UMC-11; first compound 0.08 µM): 0.823 | relative viability (UMC-11; first compound 0.253 µM): 1.04 | relative viability (UMC-11; first compound 0.8 µM): 0.82 | relative viability (UMC-11; first compound 2.53 µM): 0.791 | relative viability (UMC-11; first compound 8 µM): 0.935 | relative viability (NCI-H358; first compound 0.08 µM): 0.161 | relative viability (NCI-H358; first compound 0.253 µM): 0.188 | relative viability (NCI-H358; first compound 0.8 µM): 0.183 | relative viability (NCI-H358; first compound 2.53 µM): 0.176 | relative viability (NCI-H358; first compound 8 µM): 0.175 | relative viability (NCI-H1944; first compound 0.08 µM): 0.642 | relative viability (NCI-H1944; first compound 0.253 µM): 0.518 | relative viability (NCI-H1944; first compound 0.8 µM): 0.636 | relative viability (NCI-H1944; first compound 2.53 µM): 0.516 | relative viability (NCI-H1944; first compound 8 µM): 0.698 | relative viability (LC-2-ad; first compound 0.08 µM): 0.284 | relative viability (LC-2-ad; first compound 0.253 µM): 0.252 | relative viability (LC-2-ad; first compound 0.8 µM): 0.285 | relative viability (LC-2-ad; first compound 2.53 µM): 0.271 | relative viability (LC-2-ad; first compound 8 µM): 0.27 | relative viability (LU99A; first compound 0.08 µM): 0.201 | relative viability (LU99A; first compound 0.253 µM): 0.169 | relative viability (LU99A; first compound 0.8 µM): 0.184 | relative viability (LU99A; first compound 2.53 µM): 0.324 | relative viability (LU99A; first compound 8 µM): 0.187 | relative viability (LXF-289; first compound 0.08 µM): 0.95 | relative viability (LXF-289; first compound 0.253 µM): 0.96 | relative viability (LXF-289; first compound 0.8 µM): 0.975 | relative viability (LXF-289; first compound 2.53 µM): 0.93 | relative viability (LXF-289; first compound 8 µM): 1.03 | relative viability (NCI-H460; first compound 0.08 µM): 0.0549 | relative viability (NCI-H460; first compound 0.253 µM): 0.0572 | relative viability (NCI-H460; first compound 0.8 µM): 0.0622 | relative viability (NCI-H460; first compound 2.53 µM): 0.0639 | relative viability (NCI-H460; first compound 8 µM): 0.0685 | relative viability (HCC-366; first compound 0.08 µM): 0.154 | relative viability (HCC-366; first compound 0.253 µM): 0.193 | relative viability (HCC-366; first compound 0.8 µM): 0.167 | relative viability (HCC-366; first compound 2.53 µM): 0.154 | relative viability (HCC-366; first compound 8 µM): 0.155
